From ChEMBL document CHEMBL1150745, “Plant anticancer agents, XLVI. Cytotoxic casbane-type constituents of Agrostistachys hookeri” (1988) come the findings set out here.

Converted amounts (≈) assume the structure as drawn.

For this assay, the system named is P388. Put plainly: Cytotoxicity against mouse P388 cells. To be noted: read-out: ED50 (the source's name). It counts as functional.
As to `C/C1=C/C(=O)C/C(C)=C/[C@H](O)C(=O)/C(C)=C/[C@H]2[C@@H](CC1)C2(C)C`, the EC50 was 2.8 µg/mL (≈ 8.85 µM).
For the compound `C/C1=C/[C@H](O)C/C(C)=C/[C@H](O)C(=O)/C(C)=C/[C@H]2[C@@H](CC1)[C@]2(C)CO`, the EC50 is 0.8 µg/mL (≈ 2.39 µM).
Take `C/C1=C\[C@H](O)C(=O)/C(C)=C/[C@@H]2[C@@H](CCC(C)(O)/C=C/C1)C2(C)C` (some centres undefined) [AGROSKERIN]: the EC50 is 1.4 µg/mL (≈ 4.4 µM).
Regarding `C/C1=C/[C@H](O)C/C(C)=C/[C@H](O)C(=O)/C(C)=C/[C@H]2[C@@H](CC1)C2(C)C` [AGROSTISTACHIN], the EC50 stood at 1.4 µg/mL (≈ 4.4 µM).
